Experimental data published in patent US20090226500A1, “SUTURES AND ANTI-SCARRING AGENTS” (Angiotech Pharmaceuticals, Inc, priority 2006, published 2009).
Structures can show the parent of a compound that is named as a salt. Numbered stars: 1 amine (or outer) side, 2 acyl side, 3 side chain; on linkers, the order of the positions; unused ones are H or OH. Bridge positions count the residues as written; N and C are the ends. Square brackets hold non-standard residues; d marks the D form. Peptide text beside a SMILES is read from it. I, II: the chains in the order shown. Actinocin(9to1) = Cc1c2oc3c(C)ccc(C(=O)[*:1])c3nc-2c(C(=O)[*:2])c(N)c1=O; NMeV = CN[C@H](C(=O)O)C(C)C; Sar = CNCC(=O)O

System: human fibroblasts
Assay: Cell proliferation of fibroblasts
Type: cell-based
Settings: Fibroblast, 72 hours, CYQUANT, read-out: IC50 cell proliferation of fibroblasts
Description: Fibroblasts at 70-90% confluency are trypsinized, replated at 600 cells/well in media in 96-well plates and allowed to attachment overnight. […] Each drug concentration is tested in triplicate wells. Plates containing fibroblasts and drug substance are incubated at 37° C. for 72 hours.
To terminate the assay, the media is removed by gentle aspiration. A 1/400 dilution of CYQUANT 400×GR™ dye indicator (Molecular Probes; Eugene, Oreg.) is added to 1× Cell Lysis buffer, and 200 μL of the mixture is added to the wells of the plate. Plates are incubated at room temperature, protected from light for 3-5 minutes.

Nc1ncn([C@@H]2O[C@H](CO)[C@@H](O)[C@H]2O)c(=O)n1 [5-Azacytidine] showed an IC50 of 0.6 to 1.2 µM.

Compound O=c1cnn([C@@H]2O[C@H](CO)C(O)[C@@H]2O)c(=O)[nH]1 (some centres unmarked) [6-Azauridine, 6-Azauracil riboside] has an IC50 of 1.2 to 10 µM.

For CC[C@@]1(O)C[C@H](O[C@H]2C[C@H](N(C)C)[C@H](O[C@H]3C[C@H](O)[C@H](O[C@H]4CCC(=O)[C@H](C)O4)[C@H](C)O3)[C@H](C)O2)c2c(cc3c(c2O)C(=O)c2c(O)cccc2C3=O)[C@H]1C(=O)OC [Aclarubicin], the IC50 was 0.0001 to 0.01 µM.

In the case of Cc1c2oc3c(C)ccc(C(=O)N[C@@H]4C(=O)N[C@H](C(C)C)C(=O)N5CCC[C@H]5C(=O)N(C)CC(=O)N(C)[C@@H](C(C)C)C(=O)O[C@@H]4C)c3nc-2c(C(=O)N[C@@H]2C(=O)N[C@H](C(C)C)C(=O)N3CCC[C@H]3C(=O)N(C)CC(=O)N(C)[C@@H](C(C)C)C(=O)O[C@@H]2C)c(N)c1=O [Actinomycin D] (I: T[dV]P[Sar][NMeV] / II: T[dV]P[Sar][NMeV]; ester I:1-I:C, II:1-II:C; linker I:N-II:N via Actinocin(9to1)), the IC50 is reported as 0.0001 to 0.01 µM.

Compound CCCSc1ccc2nc(NC(=O)OC)[nH]c2c1 [Albendazole] has an IC50 of 0.1 to 0.6 µM.

S=C(S)N1CCCC1 [Ammonium pyrrolidinedithiocarbamate, 1-Pyrrolidinecarbodithioic acid ammonium salt] gave an IC50 of 0.1 to 0.6 µM.

Work on N=c1ccn2c(n1)O[C@H]1[C@H](O)[C@@H](CO)O[C@H]12 [Ancitabine hydrochloride] yielded an IC50 of 0.1 to 0.6 µM.

O=c1cc(-c2ccc(O)cc2)oc2cc(O)cc(O)c12 [Apigenin, 4,5,7-Trihydroxyflavone] was tested, and the IC50 was 1.2 to 10 µM.

O=C1C(O)=C([C@H]2CC[C@H](c3ccc(Cl)cc3)CC2)C(=O)c2ccccc21 [Atovaquone] showed an IC50 of 1.2 to 10 µM.

In the case of Cc1ccc2nc(NCCN)c3ncc(C)n3c2c1 [BMS-345541], the IC50 is reported as 1.2 to 10 µM.

Work on O=C(OOC(=O)c1ccccc1)c1ccccc1 [Benzoyl peroxide] yielded an IC50 of 1.2 to 10 µM.

C=C(C)[C@@H]1CC[C@]2(C(=O)O)CC[C@]3(C)[C@H](CC[C@@H]4[C@@]5(C)CC[C@H](O)C(C)(C)[C@@H]5CC[C@]43C)[C@@H]12 [Betulinic acid] showed an IC50 of 1.2 to 10 µM.

Work on Clc1ccc(CCC(Cn2ccnc2)Sc2c(Cl)cccc2Cl)cc1 (centres unmarked) [Butoconazole Nitrate] yielded an IC50 of 1.2 to 10 µM.

With O=C1NC(=O)c2cc(Nc3ccc(F)cc3)c(Nc3ccc(F)cc3)cc21 [CGP53353] the IC50 was 1.2 to 10 µM.

In the case of CCOc1nc2cccc(C(=O)O)c2n1Cc1ccc(-c2ccccc2-c2nnn[nH]2)cc1 [Candesartan], the IC50 is reported as 0.01 to 0.1 µM.

O=NN(CCCl)C(=O)NCCCl [Carmustine] showed an IC50 of 1.2 to 10 µM.

Cc1ccc(-c2cc(C(F)(F)F)nn2-c2ccc(S(N)(=O)=O)cc2)cc1 [Celecoxib] was tested, and the IC50 was 0.1 to 0.6 µM.

Work on C/C=C(\C)C(=O)N[C@@H](c1ccccc1)[C@@H](O)C(=O)O[C@H]1C[C@@]2(O)[C@@H](OC(=O)c3ccccc3)[C@@H]3[C@]4(OC(C)=O)CO[C@@H]4C[C@H](O)[C@@]3(C)C(=O)[C@H](OC(C)=O)C(=C1C)C2(C)C [Cephalomannine] yielded an IC50 of 0.01 to 0.1 µM.

In the case of COc1ccc2cc1Oc1ccc(cc1)C[C@H]1c3c(cc4c(c3Oc3cc5c(cc3OC)CCN(C)[C@@H]5C2)OCO4)CCN1C [Cepharanthine], the IC50 is reported as 0.6 to 1.2 µM.

COCc1c(C(C)C)nc(C(C)C)c(/C=C/[C@@H](O)C[C@@H](O)CC(=O)O)c1-c1ccc(F)cc1 [Cerivastatin Na] showed an IC50 of 1.2 to 10 µM.

In the case of CC1(COc2ccc(CC3SC(=O)NC3=O)cc2)CCCCC1 (centres unmarked) [Ciglitazone], the IC50 is reported as 0.6 to 1.2 µM.

CC[C@H]1OC(=O)[C@H](C)[C@@H](O[C@H]2C[C@@](C)(OC)[C@@H](O)[C@H](C)O2)[C@H](C)[C@@H](O[C@@H]2O[C@H](C)C[C@H](N(C)C)[C@H]2O)[C@](C)(OC)C[C@@H](C)C(=O)[C@H](C)[C@@H](O)[C@]1(C)O [Clarithromycin, 6-O-Methylerythromycin] showed an IC50 of 0.1 to 0.6 µM.

In the case of O=C1CCc2cc(OCCCCc3nnnn3C3CCCCC3)ccc2N1 [Cliostazol], the IC50 is reported as 1.2 to 10 µM.

CCOC(=O)COc1ccc2c(C)c(CCN(CC)CC)c(=O)oc2c1Cl [Cloricromene] was tested, and the IC50 was 1.2 to 10 µM.

Compound COc1cc(/C=C/C(=O)CC(=O)/C=C/c2ccc(O)c(OC)c2)ccc1O [Curcumin, Diferuloylmethane] has an IC50 of 1.2 to 10 µM.

Compound CN(C)/N=N/c1[nH]cnc1C(N)=O [Dacarbazine] has an IC50 of 0.01 to 0.1 µM.

Nc1ncn([C@H]2C[C@H](O)[C@@H](CO)O2)c(=O)n1 [Decitabine, 5-Aza-2-deoxycytidine] gave an IC50 of 0.1 to 0.6 µM.

Compound O=c1oc2ccccc2c(O)c1Cc1c(O)c2ccccc2oc1=O [Dicumarol, 3,3-Methylenebis(4-hydroxycoumarin)] has an IC50 of 1.2 to 10 µM.

CC(=O)OCC(=O)[C@@]1(OC(C)=O)[C@@H](C)C[C@H]2[C@@H]3C[C@H](F)C4=CC(=O)C=C[C@]4(C)[C@@]3(F)[C@@H](O)C[C@@]21C [Diflorasone diacetate] gave an IC50 of 1.2 to 10 µM.

Cc1cc(O)c2c(c1)C(=O)c1cc(O)cc(O)c1C2=O [Emodin, 6-Methyl-1,3,8-trihydroxyanthraquinone] showed an IC50 of 1.2 to 10 µM.

For CCOC(=O)[C@H](CCc1ccccc1)N[C@@H](C)C(=O)N1CCC[C@H]1C(=O)O [Enalapril], the IC50 was 1.2 to 10 µM.

Work on COC(=O)C=Cc1cc(O)ccc1O [Erbstatin analog, Methyl 2,5-dihydroxycinnamate] yielded an IC50 of 1.2 to 10 µM.

O=C(O)CSCC(=O)NC1CCSC1=O (centres unmarked) [Erdosteine] was tested, and the IC50 was 1.2 to 10 µM.

NC(N)=Nc1nc(CSCCC(N)=NS(N)(=O)=O)cs1 [Famotidine] gave an IC50 of 0.1 to 0.6 µM.

For O=S(=O)(c1cccc2cnccc12)N1CCCNCC1 [Fasudil], the IC50 was 0.6 to 1.2 µM.

With Nc1nc(F)nc2c1ncn2[C@@H]1O[C@H](COP(=O)(O)O)[C@@H](O)[C@@H]1O [Fludarabine Phosphate] the IC50 was 1.2 to 10 µM.

In the case of CC(C)n1c(/C=C/C(O)CC(O)CC(=O)O)c(-c2ccc(F)cc2)c2ccccc21 (centres unmarked) [Fluvastatin], the IC50 is reported as 0.1 to 0.6 µM.

COc1ccc(-c2coc3cc(O)ccc3c2=O)cc1 [Formononetin, 7-Hydroxy-4-methoxyisoflavone] showed an IC50 of 0.1 to 0.6 µM.

Work on Cc1ccc(C)c(OCCCC(C)(C)C(=O)O)c1 [Gemfibrozil] yielded an IC50 of 0.01 to 0.1 µM.

For CCCCCCC(C)(C)c1cc(O)c2c(c1)OC(C)(C)[C@@H]1CC=C(CO)C[C@@H]21 [HU-210], the IC50 was 1.2 to 10 µM.

CCC(=O)O[C@]1(C(=O)CCl)[C@@H](C)C[C@H]2[C@@H]3C[C@H](F)C4=CC(=O)C=C[C@]4(C)[C@@]3(F)[C@@H](O)C[C@@]21C [Halobetasol Propionate] gave an IC50 of 1.2 to 10 µM.

With COc1ccc([C@@H]2CC(=O)c3c(O)cc(O)cc3O2)cc1O [Hesperetin] the IC50 was 0.0001 to 0.01 µM.

With COC(=O)C[C@](O)(CCCC(C)(C)O)C(=O)O[C@@H]1C(OC)=C[C@]23CCCN2CCc2cc4c(cc2[C@H]13)OCO4 [Homoharringtonine] the IC50 was 0.01 to 0.1 µM.

Compound NNc1nncc2ccccc12 [Hydralazine hydrochloride] has an IC50 of 1.2 to 10 µM.

O=C(Nc1cc(C(F)(F)F)cc(C(F)(F)F)c1)c1cc(Cl)ccc1O [IMD-0354] gave an IC50 of 0.1 to 0.6 µM.

Work on O=c1[nH]cnc2c1ncn2[C@@H]1O[C@H](CO)[C@@H](O)[C@H]1O [INO-1001] yielded an IC50 of 1.2 to 10 µM.

With COC1=C(OC)C(=O)C(CCCCCCCCCCO)=C(C)C1=O [Idebenone] the IC50 was 1.2 to 10 µM.

For c1c[nH]cn1 [Imidazole], the IC50 was 1.2 to 10 µM.

Compound CCc1c2c(nc3ccc(OC(=O)N4CCC(N5CCCCC5)CC4)cc13)-c1cc3c(c(=O)n1C2)COC(=O)[C@]3(O)CC [Irinotecan Hydrochloride Trihydrate] has an IC50 of 0.6 to 1.2 µM.

In the case of Nc1nc(N)nc(-c2cc(Cl)ccc2Cl)n1 [Irsogladine], the IC50 is reported as 1.2 to 10 µM.

CO[C@@H]1[C@@H](O[C@@H]2O[C@H](C)[C@@H](O[C@H]3C[C@@](C)(O)[C@@H](OC(=O)CC(C)C)[C@H](C)O3)[C@H](N(C)C)[C@H]2O)[C@@H](CC=O)C[C@@H](C)[C@@H](O)/C=C/C=C/C[C@@H](C)OC(=O)C[C@H]1OC(C)=O [Josamycin] showed an IC50 of 0.0001 to 0.01 µM.

O=c1c(O)c(-c2ccc(O)cc2)oc2cc(O)cc(O)c12 [Kaempferol] was tested, and the IC50 was 0.6 to 1.2 µM.

Compound CN(C)C[C@@H]1CCn2cc(c3ccccc32)C2=C(C(=O)NC2=O)c2cn(c3ccccc23)CCO1 [LY333531, Ruboxistaurin] has an IC50 of 1.2 to 10 µM.

In the case of CCCCc1nc(Cl)c(CO)n1Cc1ccc(-c2ccccc2-c2nn[nH]n2)cc1 [Losartan potassium], the IC50 is reported as 1.2 to 10 µM.

Work on NC(Cc1ccc(N(CCCl)CCCl)cc1)C(=O)O (centres unmarked) [Melphalan] yielded an IC50 of 1.2 to 10 µM.

CCC(=O)O[C@@H]1CC(=O)O[C@H](C)C/C=C/C=C/[C@H](O)[C@H](C)C[C@H](CC=O)[C@H](O[C@@H]2O[C@H](C)[C@@H](O[C@H]3C[C@@](C)(O)[C@@H](OC(=O)CC)[C@H](C)O3)[C@H](N(C)C)[C@H]2O)[C@H]1OC [Midecamycin, Leucomycin V 3,4B-dipropionate] gave an IC50 of 1.2 to 10 µM.

With O[C@@H]([C@H](O)[C@H](O)CBr)[C@H](O)CBr [Mitobronitol] the IC50 was 0.1 to 0.6 µM.

NC(=O)c1ncn([C@@H]2O[C@H](CO)[C@@H](O)[C@H]2O)c1O [Mizoribine] was tested, and the IC50 was 0.01 to 0.1 µM.

Work on O=c1c(O)c(-c2cc(O)c(O)c(O)c2)oc2cc(O)cc(O)c12 [Myricetin] yielded an IC50 of 0.6 to 1.2 µM.

For CS(=O)(=O)Nc1ccc([N+](=O)[O-])cc1OC1CCCCC1 [NS-398], the IC50 was 1.2 to 10 µM.

CNCCC=C1c2ccccc2CCc2ccccc21 [Nortriptyline Hydrochloride] showed an IC50 of 0.0001 to 0.01 µM.

In the case of CN(C)[C@@H]1C(O)=C(C(N)=O)C(=O)[C@@]2(O)C(O)=C3C(=O)c4c(O)cccc4[C@@](C)(O)[C@H]3[C@H](O)[C@@H]12 [Oxytetracycline hydrochloride], the IC50 is reported as 0.1 to 0.6 µM.

NCCC(O)(P(=O)(O)O)P(=O)(O)O [Pamidronate disodium] showed an IC50 of 0.1 to 0.6 µM.

Compound OC1(c2ccc(Cl)c(C(F)(F)F)c2)CCN(CCCC(c2ccc(F)cc2)c2ccc(F)cc2)CC1 [Penfluridol] has an IC50 of 0.6 to 1.2 µM.

N=C(N)c1ccc(OCCCCCOc2ccc(C(=N)N)cc2)cc1 [Pentamidine] showed an IC50 of 0.6 to 1.2 µM.

With C1CCNCC1 [Piperidine] the IC50 was 1.2 to 10 µM.

In the case of O=C(CCBr)N1CCN(C(=O)CCBr)CC1 [Pipobroman, N,N-Bis(3-bromopropionyl)piperazine], the IC50 is reported as 1.2 to 10 µM.

With Cc1ccc(=O)n(-c2ccccc2)c1 [Pirfenidone] the IC50 was 0.01 to 0.1 µM.
